These results are taken from patent EP0450097B1, “BENZOHETEROCYCLIC COMPOUNDS” (OTSUKA PHARMACEUTICAL CO., LTD., priority 1989, dated 1991).

For this assay, the target named is T1, V₂ receptor (Rattus norvegicus, UniProt Q00788).
T1 construct: Using rat kidney plasma membrane preparations; from tissue; host or cells: rat kidney plasma membranes
Description: V₂ receptor binding assay ([³H]-Arg-vasopressin, rat kidney plasma membrane preparations). As to conditions: 4°C for 3 hours. The procedure: Using rat kidney plasma membrane preparations prepared according to O. Hechter's method [cf: J. Bio. […] After incubation, the mixture is filtered using the glass filter (GF/F) so as to separate the membrane preparation combined with vasopressin and then washed twice with the buffer (5 ml). This glass filter is taken out and mixed with liquid scintillation cocktail. The amount of [³H]-vasopressin combined with the membrane is measured by liquid scintillation counter and the rate of the inhibitory effect of the test compound is estimated according to the following equation. Rate of the inhibitory effect (%) = 100 -(C1 - B1)/(C0 - B1)X 100 [formula] C¹: The amount of [³H]-vasopressin combined with the membrane in the presence of the test compound (in prescribed amount). C⁰: The amount of [³H)-vasopressin combined with the membrane in the absence of the test compound. B¹: The amount of [³H]-vasopressin combined with the membrane in the presence of the excess amount of vasopressin (10⁻⁶ M).
The results are expressed as IC₅₀ values, which is the concentration of the test compound required to achieve the inhibitory effect in the rate of 50 %.

T1 sequence (Q00788 whole entry): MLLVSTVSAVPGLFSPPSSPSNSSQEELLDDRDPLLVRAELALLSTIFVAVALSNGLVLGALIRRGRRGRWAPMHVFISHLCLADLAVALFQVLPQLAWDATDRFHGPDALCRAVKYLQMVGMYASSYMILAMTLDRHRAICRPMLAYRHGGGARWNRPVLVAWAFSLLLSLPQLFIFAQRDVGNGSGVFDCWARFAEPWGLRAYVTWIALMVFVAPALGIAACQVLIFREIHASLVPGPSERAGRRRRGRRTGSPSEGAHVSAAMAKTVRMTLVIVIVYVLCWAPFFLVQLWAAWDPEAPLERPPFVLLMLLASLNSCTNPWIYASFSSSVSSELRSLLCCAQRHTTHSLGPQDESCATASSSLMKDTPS

Turning to `COc1cc(C(=O)N2CCC(N(C)C)c3ccccc32)ccc1NC(=O)c1cccc(C)c1C` (stereo not drawn) [compound 144], the IC50 worked out at 20 nM. Take `Cc1ccccc1C(=O)Nc1ccc(C(=O)N2CCC(CN(C)C)c3ccccc32)cc1` (stereo not drawn) [compound 145]: the IC50 is 60 nM. Consider `CCCNC1CCCN(C(=O)c2ccc(NC(=O)c3ccc(Cl)cc3Cl)cc2)c2ccccc21` (stereo not drawn) [compound 169], for which the IC50 came out at 71 nM.

For the molecule `Cc1ccccc1C(=O)Nc1ccc(C(=O)N2CCCC(N(C)C)c3ccccc32)cc1OCc1ccccc1` (stereo not drawn) [compound 170], the IC50 stood at 250 nM. With `Cc1ccccc1C(=O)Nc1ccc(C(=O)N2CCC[S+]([O-])c3ccccc32)cc1` (stereo not drawn) [compound 171], the IC50 turned out to be 870 nM. As for `CN(C)C1CCCN(C(=O)c2ccc(NC(=O)c3ccccc3C(C)(C)C)cc2Cl)c2ccccc21` (stereo not drawn) [compound 175], the figure is 38 nM; as for `CNC1CCCN(C(=O)c2ccc(NC(=O)c3ccccc3Cl)cc2Cl)c2ccccc21` (stereo not drawn) [compound 176], 4 nM.

`COc1cc(NC(=O)c2ccccc2Cl)ccc1C(=O)N1CCCC(N(C)C)c2ccccc21` (stereo not drawn) [compound 177] registered an IC50 of 150 nM. As for `CN(C)C1CCCN(C(=O)c2ccc(NC(=O)c3ccccc3Cl)cc2)c2ccccc21` (stereo not drawn) [compound 180], the figure is 34 nM; as for `CNC1CCCN(C(=O)c2ccc(NC(=O)c3ccccc3Cl)cc2)c2ccccc21` (stereo not drawn) [compound 181], 38 nM; as for `CNC1CCCN(C(=O)c2ccc(NC(=O)c3ccccc3C)cc2Cl)c2ccccc21` (stereo not drawn) [compound 182], 5 nM.

Consider `COc1cc(NC(=O)c2ccccc2C)ccc1C(=O)N1CCCC(N(C)C)c2ccccc21` (stereo not drawn) [compound 183], for which the IC50 was determined as 260 nM.

Molecule `CN(C)C1CCCN(C(=O)c2ccc(NC(=O)c3ccccc3Cl)cc2Cl)c2ccccc21` (stereo not drawn) [compound 184] yielded an IC50 of 23 nM.

In turn, `O=C(Nc1ccc(C(=O)N2CCCC(NC3CC3)c3ccccc32)c(Cl)c1)c1ccc(Cl)cc1Cl` (stereo not drawn) [compound 186] had an IC50 of 30 nM. The value for `CN(C)C1CCCN(C(=O)c2ccc(NC(=O)c3ccccc3Cl)c(OC(=O)c3ccccc3Cl)c2)c2ccccc21` (stereo not drawn) [compound 189] was 87 nM. `C=CCN(C)C1CCCN(C(=O)c2ccc(NC(=O)c3ccccc3C)cc2Cl)c2ccccc21` (stereo not drawn) [compound 190]: the concentration for half-maximal inhibition (IC50) was determined as 82 nM. For `Cc1ccccc1C(=O)Nc1ccc(C(=O)N2CCCC(OC(N)=O)c3ccccc32)cc1` (stereo not drawn) [compound 191], the IC50 is 9 nM. Take `Cc1ccccc1C(=O)Nc1ccc(C(=O)N2CCCC(N(C)C)c3ccccc32)c(N(C)C)c1` (stereo not drawn) [compound 197]: the IC50 was 990 nM. Molecule `CNC1CCCN(C(=O)c2ccc(NC(=O)c3ccccc3C(F)(F)F)cc2Cl)c2ccccc21` (stereo not drawn) [compound 198] displayed an IC50 of 40 nM. As to `O=C(Nc1ccc(C(=O)N2CCCC(NC3CC3)c3ccccc32)c(Cl)c1)c1ccccc1Cl` (stereo not drawn) [compound 200], the IC50 amounted to 24 nM. `C=CCNC1CCCN(C(=O)c2ccc(NC(=O)c3ccccc3C)cc2Cl)c2ccccc21` (stereo not drawn) [compound 201] showed an IC50 of 23 nM. As to `O=C(Nc1ccc(C(=O)N2CCCC(N3CCCCC3)c3ccccc32)cc1)c1ccccc1Cl` (stereo not drawn) [compound 202], the IC50 worked out at 140 nM.

In turn, `O=C(Nc1ccc(C(=O)N2CCCC(N3CCN(Cc4ccccc4)CC3)c3ccccc32)cc1)c1ccccc1Cl` (stereo not drawn) [compound 203] registered an IC50 of 70 nM. `O=C(Nc1ccc(C(=O)N2CCCC(N3CCCC3)c3ccccc32)cc1)c1ccccc1Cl` (stereo not drawn) [compound 204]: the IC50 was 110 nM.

`CC(=O)N1CCN(C2CCCN(C(=O)c3ccc(NC(=O)c4ccccc4Cl)cc3)c3ccccc32)CC1` (stereo not drawn) [compound 205] yielded an IC50 of 74 nM. As for `CN1CCN(C2CCCN(C(=O)c3ccc(NC(=O)c4ccccc4Cl)cc3)c3ccccc32)CC1` (stereo not drawn) [compound 206], the figure is 88 nM. The molecule `Cc1ccccc1C(=O)Nc1ccc(C(=O)N2CCCC(O)c3ccccc32)c(Cl)c1` (stereo not drawn) [compound 210] came in with an IC50 of 4 nM. In turn, `CN(C)C1CCCN(C(=O)c2ccc(NC(=O)c3ccccc3F)cc2)c2ccccc21` (stereo not drawn) [compound 212] showed an IC50 of 35 nM. In turn, `CN(C)C1CCCN(C(=O)c2ccc(NC(=O)c3ccc(F)cc3F)cc2)c2ccccc21` (stereo not drawn) [compound 213] gave a half-maximal inhibitory concentration (IC50) of 33 nM. For `CN(C)C1c2ccccc2N(C(=O)c2ccc(NC(=O)c3ccccc3Cl)cc2)CCC1O` (stereo not drawn) [compound 216], the 50% inhibitory concentration (IC50) was determined as 910 nM. In turn, `Cc1ccccc1C(=O)Nc1ccc(C(=O)N2CC=Cc3ccccc32)cc1` [compound 217] came in with an IC50 of 370 nM. With `Cc1ccccc1C(=O)Nc1ccc(C(=O)N2CCCC(N(C)C)c3ccccc32)c(C)c1` (stereo not drawn) [compound 218], the IC50 is 22 nM. For `Cc1cc(NC(=O)c2ccccc2Cl)ccc1C(=O)N1CCCC(N(C)C)c2ccccc21` (stereo not drawn) [compound 219], the IC50 came to 23 nM. With `Cc1cc(NC(=O)c2ccc(Cl)cc2Cl)ccc1C(=O)N1CCCC(N(C)C)c2ccccc21` (stereo not drawn) [compound 220], the IC50 came out at 26 nM. The value for `CCN(CC(=O)Nc1ccc(C(=O)N2CCCC(NC)c3ccccc32)c(Cl)c1)c1ccccc1` (stereo not drawn) [compound 221] was 24 nM; that for `CN(C)C1CCCN(C(=O)c2ccc(NC(=O)c3ccccc3Cl)cc2F)c2ccccc21` (stereo not drawn) [compound 223] was 22 nM; that for `CNC1c2ccccc2N(C(=O)c2ccc(NC(=O)c3ccccc3Cl)cc2Cl)CCC1O` (stereo not drawn) [compound 224] was 380 nM.

`Cc1ccccc1C(=O)Nc1ccc(C(=O)N2CCCC(O)(CO)c3ccccc32)c(Cl)c1` (stereo not drawn) [compound 225] registered an IC50 of 30 nM. Turning to `Cc1ccccc1C(=O)Nc1ccc(C(=O)N2CCCC(N(C)C)c3ccccc32)c(F)c1` (stereo not drawn) [compound 226], the IC50 came out at 19 nM. `Cc1cc(C(=O)N2CCCC(N(C)C)c3ccccc32)ccc1NC(=O)c1ccc(Cl)cc1Cl` (stereo not drawn) [compound 227] displayed an IC50 of 29 nM.

For `CCN(C)C1CCCN(C(=O)c2ccc(NC(=O)c3ccccc3C)cc2)c2ccccc21` (stereo not drawn) [compound 228], the IC50 is 29 nM.

`CCNC1CCCN(C(=O)c2ccc(NC(=O)c3ccccc3C)cc2)c2ccccc21` (stereo not drawn) [compound 229]: the half-maximal inhibitory concentration (IC50) was found to be 29 nM. Take `CN(C)C1CCCN(C(=O)c2ccc(NC(=O)c3cc(F)cc(F)c3)cc2)c2ccccc21` (stereo not drawn) [compound 230]: the IC50 amounted to 20 nM. `Cc1ccccc1C(=O)Nc1ccc(C(=O)N2CCCC(N(C)C)c3ccccc32)cc1F` (stereo not drawn) [compound 232] registered an IC50 of 20 nM. For the molecule `COC1(OC)CCN(C(=O)c2ccc(NC(=O)c3ccccc3C)cc2)c2ccccc2C1` [compound 233], the IC50 was found to be 150 nM.

As to `CC(=O)ON=C1CCCN(C(=O)c2ccc(NC(=O)c3ccccc3Cl)cc2)c2ccccc21` [compound 234], the IC50 is 140 nM. `Cc1ccccc1C(=O)Nc1ccc(C(=O)N2CCCC(O)(CO)c3ccccc32)cc1` (stereo not drawn) [compound 237] yielded a concentration for half-maximal inhibition (IC50) of 41 nM.

With `CN(C)C1CCCN(C(=O)c2ccc(NC(=O)c3ccccc3OCC(N)=O)cc2)c2ccccc21` (stereo not drawn) [compound 239], the IC50 worked out at 170 nM.

`COc1cc(C(=O)N2CCCC(N(C)C)c3ccccc32)ccc1NC(=O)c1ccc(Cl)cc1Cl` (stereo not drawn) [compound 248]: the half-inhibitory concentration (IC50) stood at 60 nM. With `CN1CC(=O)OC2CCN(C(=O)c3ccc(NC(=O)c4ccccc4Cl)cc3)c3ccccc3C21` (stereo not drawn) [compound 251], the IC50 stood at 94 nM. The value for `NC1CCCN(C(=O)c2ccc(NC(=O)c3ccccc3Cl)cc2)c2ccccc21` (stereo not drawn) [compound 253] was 52 nM; that for `Cc1ccccc1C(=O)Nc1ccc(C(=O)N2CCC(C)C(N(C)C)c3ccccc32)cc1` (stereo not drawn) [compound 254] was 16 nM; that for `O=C(Nc1ccc(C(=O)N2CCCC(NCCc3ccccn3)c3ccccc32)cc1)c1ccccc1Cl` (stereo not drawn) [compound 257] was 45 nM. Molecule `Cc1ccccc1C(=O)Nc1ccc(C(=O)N2CCCC(N(C)S(C)(=O)=O)c3ccccc32)cc1` (stereo not drawn) [compound 258] displayed an IC50 of 200 nM.

As for `CCOC(=O)NC1CCCN(C(=O)c2ccc(NC(=O)c3ccccc3C)cc2)c2ccccc21` (stereo not drawn) [compound 260], the IC50 was 130 nM. Consider `Cc1ccccc1C(=O)Nc1ccc(C(=O)N2CCCC(C)(O)c3ccccc32)cc1` (stereo not drawn) [compound 261], for which the IC50 was found to be 11 nM. For `CCOC(=O)CN(C)C1CCCN(C(=O)c2ccc(NC(=O)c3ccccc3C)cc2)c2ccccc21` (stereo not drawn) [compound 262], the IC50 was found to be 29 nM. In turn, `Cc1ccccc1C(=O)Nc1ccc(C(=O)N2CCCC(NC3CCCC3)c3ccccc32)c(Cl)c1` (stereo not drawn) [compound 263] displayed an IC50 of 53 nM. For `Cc1ccccc1C(=O)Nc1ccc(C(=O)N2CCCC(N(C)CC(O)CO)c3ccccc32)cc1` (stereo not drawn) [compound 264], the IC50 was 30 nM. With `Cc1ccccc1C(=O)Nc1ccc(C(=O)N2CCCC(N(C)CC#N)c3ccccc32)cc1` (stereo not drawn) [compound 265], the IC50 worked out at 25 nM. `Cc1ccccc1C(=O)Nc1ccc(C(=O)N2CCCC(N(C)CCCOC3CCCCO3)c3ccccc32)cc1` (stereo not drawn) [compound 267] returned an IC50 of 120 nM. `Cc1ccccc1C(=O)Nc1ccc(C(=O)N2CCCC(CN(C)C)c3ccccc32)cc1` (stereo not drawn) [compound 268]: the IC50 came out at 18 nM. As for `Cc1ccccc1C(=O)Nc1ccc(C(=O)N2CCCC(NN)c3ccccc32)cc1` (stereo not drawn) [compound 282], the IC50 is 380 nM. Regarding `CNC(=O)NC1CCCN(C(=O)c2ccc(NC(=O)c3ccccc3C)cc2)c2ccccc21` (stereo not drawn) [compound 283], the IC50 amounted to 96 nM. For the molecule `CN(C)C1CCCN(C(=O)c2ccc(NC(=O)c3cccc([N+](=O)[O-])c3)cc2)c2ccccc21` (stereo not drawn) [compound 289], the IC50 came to 71 nM. As to `CNCC(=O)NC1CCCN(C(=O)c2ccc(NC(=O)c3ccccc3C)cc2)c2ccccc21` (stereo not drawn) [compound 291], the half-inhibitory concentration (IC50) was found to be 130 nM.
